One data set concerns hESCs. In words: Arginine / ADMA fold change ratio (integrated EICs) in dosed hESCs vs controls. The note with it: for Arg fold change/ADMA fold change: EIC areas, controls vs. dosed. How it is done:
All tested chemicals were purchased from Sigma-Aldrich (St. Louis, Mo.). Cells were dosed with drugs at a concentration equivalent to their published serum circulating therapeutic dosages. Dosing was performed on hESCs in 6-well plates in triplicate, i.e. three wells per plate. The plates were dosed in triplicate, so there were a total of nine dosed wells. In parallel, there were nine “control” wells, in which hESCs were cultured with mTeSR1 containing no drug, and three wells containing Matrigel with mTeSR1 medium without hESCs that served as medium controls. Lastly, three wells of dosed medium controls were prepared, containing Matrigel, mTeSR1 and drug, but no hESCs (FIG. 1). These medium controls provided baseline mass spectral data. On the first day of dosage, the determined concentration of drug was dissolved in mTeSR1, and then 2.5 mL of this solution was added to each dosed well of hESCs. Each day, for four days, the medium was removed and new dosed medium was added. On the fourth day, the medium was removed and added to acetonitrile to make a 40% acetonitrile solution, as outlined in the Sample Preparation section below.
Mass spectrometry was performed using an Agilent QTOF LC/MS system consisting of a G6520AA QTOF high resolution mass spectrometer capable of exact mass MS and MS/MS. In order to facilitate separation of small molecules with a wide range of polarity and to allow increased retention of hydrophilic species, Hydrophilic Interaction Liquid Chromatography (Alpert 1990) was employed. Each sample was run for 30 minutes with the gradient shown in Table 3 at a flow rate of 0.5 mL/min, using 0.1% formic acid in water (Solvent A) and 0.1% formic acid in acetonitrile (Solvent B). Electrospray ionization was employed using a dual ESI source, with an Agilent isocratic pump continuously delivering an internal mass reference solution into the source at approx. 0.01 mL/min. The mass range of the instrument was set to 100-1700 Da. A Phenomenex Luna HILIC column with dimensions 3×100 mm 3 μm particle size was used and maintained at 30° C. 5 μl of each sample was injected. Data acquisition was performed with Agilent MassHunter using high-resolution exact mass conditions.
Valproate is known to cause neural tube defects (DiLiberti et al. 1984) while nitric oxide synthase activity is essential for neural tube closure (Nachmany et al. 2006).

Data set [1] concerns WA09 human embryonic stem (hES) cells. Put plainly: PLS-DA prediction of teratogenicity from secretome of treated hES cells (Example 9). The note with it: DevTox pharmaceutical.
Source text: These included 11 known teratogens and 11 known non-teratogens. The current model is based on the mean fold change (treatment versus its associated intra-experimental control) of 15 metabolites common among the secretome of hES cells treated with pharmaceutical agents and unknown chemical compounds.
[2] abbreviates: high dose (H = 10x circulating dose).
Setting [3] is: low dose (L = 0.1x circulating dose).

SMILES strings stand for the structures. Where two headings read alike, the source gives them in different places.

Regarding `CC(=O)Oc1ccccc1C(=O)O` [Aspirin], the “Arg fold change/ADMA fold change” value in the data set on hESCs is on record as 1.07.
Turning to `CN(C)CCOC(c1ccccc1)c1ccccc1` [Diphenhydramine], in data set [1] (setting [2]), the “% Non (PLS-DA class probability non-teratogen)” value (from here on “% Non”) was 0.73, the “% Ter (PLS-DA class probability teratogen)” value (from here on “% Ter”) is reported as 0.27, the “Confidence (difference between class probabilities)” value is on record as 0.46 and the Prediction result is listed as “Non”. Further, in data set [1] (setting [3]), the “% Non” value is recorded as 0.76, the “% Ter” value was 0.24, the “Confidence (difference between class probabilities)” value is listed as 0.52 and the Prediction result is listed as “Non”.
Regarding `CC1(C)S[C@@H]2[C@H](NC(=O)Cc3ccccc3)C(=O)N2[C@H]1C(=O)O` [Penicillin G], the “Arg fold change/ADMA fold change” value in the data set on hESCs turned out to be 0.96. Besides, the “Arg/ADMA Prediction” value in the data set on hESCs (from fold change ratio) is “Non (Smaller fold change ratios (between 0.9 and 1.1) show a good correlation with non-teratogens)”.
Regarding `CCCC(CCC)C(=O)O` [VPA], in data set [1] (setting [2]), the “% Non” value is given as 0.34, the “% Ter” value is listed as 0.66, the “Confidence (difference between class probabilities)” value is 0.32 and the Prediction entry was “Ter”. For the same molecule, in data set [1] (setting [3]), the “% Non” value was 0.43, the “% Ter” value is 0.57, the “Confidence (difference between class probabilities)” value is 0.14 and the Prediction result is given as “Ter”.
`Cn1c(=O)c2c(ncn2C)n(C)c1=O` [Caffeine]: in data set [1] (setting [2]), the “% Non” value is 0.53, the “% Ter” value is listed as 0.47 and the “Confidence (difference between class probabilities)” value is reported as 0.06. In addition, in data set [1] (setting [3]), the “% Non” value is listed as 0.58, the “% Ter” value is 0.42 and the “Confidence (difference between class probabilities)” value is recorded as 0.16.
Consider `N[C@@H](Cc1cc(I)c(Oc2cc(I)c(O)c(I)c2)c(I)c1)C(=O)O` [Levothyroxine], for which the “Arg fold change/ADMA fold change” value in the data set on hESCs was determined as 1.03. Besides, the “Arg/ADMA Prediction” value with hESCs (from fold change ratio) was “Non (Smaller fold change ratios (between 0.9 and 1.1) show a good correlation with non-teratogens)”. In data set [1] (setting [2]), the “% Non” value is on record as 0.59, the “% Ter” value is reported as 0.41, the “Confidence (difference between class probabilities)” value is recorded as 0.18 and the Prediction result is “Non”. Also, in data set [1] (setting [3]), the “% Non” value is listed as 0.69, the “% Ter” value is listed as 0.31, the “Confidence (difference between class probabilities)” value was 0.38 and the Prediction entry was “Non”.
In the case of `CC1=C(/C=C/C(C)=C/C=C/C(C)=C/C(=O)O)C(C)(C)CCC1` [Retinoic Acid], in the data set on hESCs, the “Arg/ADMA Prediction” value was “Ter” and the “Arg fold change/ADMA fold change” value is 0.48.
Turning to `NNC(=O)c1ccncc1` [Isoniazid], in the data set with hESCs, the “Arg fold change/ADMA fold change” value is reported as 0.94. In addition, in data set [1] (setting [2]), the “% Non” value is given as 0.59, the “% Ter” value is reported as 0.41, the “Confidence (difference between class probabilities)” value was 0.18 and the Prediction entry was “Non”. In data set [1] (setting [3]), the “% Non” value is reported as 0.76, the “% Ter” value is reported as 0.24, the “Confidence (difference between class probabilities)” value is recorded as 0.52 and the Prediction entry is reported as “Non”.
As to `CC1=C(/C=C/C(C)=C/C=C/C(C)=C/C(=O)O)C(C)(C)CCC1` [RetinoicAcid], in data set [1] (setting [2]), the “% Non” value is listed as 0.3, the “% Ter” value is 0.7, the “Confidence (difference between class probabilities)” value is recorded as 0.4 and the Prediction result is reported as “Ter”. In data set [1] (setting [3]), the “% Non” value is given as 0.3, the “% Ter” value is given as 0.7, the “Confidence (difference between class probabilities)” value was 0.4 and the Prediction entry is “Ter”.
In the case of `Nc1nc2ncc(CNc3ccc(C(=O)N[C@@H](CCC(=O)O)C(=O)O)cc3)nc2c(=O)[nH]1` [Folic Acid], the “Arg fold change/ADMA fold change” value with hESCs came out at 1.08. In addition, in data set [1] (setting [2]), the “% Non” value is listed as 0.59, the “% Ter” value is given as 0.41, the “Confidence (difference between class probabilities)” value is 0.18 and the Prediction result is listed as “Non”. In data set [1] (setting [3]), the “% Non” value is 0.59, the “% Ter” value was 0.41, the “Confidence (difference between class probabilities)” value is given as 0.18 and the Prediction entry was “Non”.
With `CC1(C)S[C@@H]2[C@H](NC(=O)Cc3ccccc3)C(=O)N2[C@H]1C(=O)O` [PenicillinG], in data set [1] (setting [2]), the “% Non” value is 0.57, the “% Ter” value is recorded as 0.43, the “Confidence (difference between class probabilities)” value is given as 0.14 and the Prediction entry is “Non”. In data set [1] (setting [3]), the “% Non” value is on record as 0.55, the “% Ter” value is reported as 0.45, the “Confidence (difference between class probabilities)” value is 0.1 and the Prediction entry is listed as “Non”.
Consider `O=C1O[C@H]([C@@H](O)CO)C(O)=C1O` [Ascorbic Acid], for which, in the data set on hESCs, the “Arg/ADMA Prediction” value is on record as “Ter”, the “Outcome of the Arg/ADMA metrics for teratogenicity” value was “false positives for teratogenicity” and the “Arg fold change/ADMA fold change” value came to 1.28. In addition, in data set [1] (setting [2]), the “% Non” value is 0.57, the “% Ter” value was 0.43, the “Confidence (difference between class probabilities)” value is given as 0.14 and the Prediction result is reported as “Non”. In addition, in data set [1] (setting [3]), the “% Non” value was 0.57, the “% Ter” value is recorded as 0.43, the “Confidence (difference between class probabilities)” value was 0.14 and the Prediction result is “Non”.
`O=C1NS(=O)(=O)c2ccccc21` [Saccharin]: in data set [1] (setting [2]), the “% Non” value is given as 0.8, the “% Ter” value was 0.2, the “Confidence (difference between class probabilities)” value is 0.6 and the Prediction result was “Non”. Moreover, in data set [1] (setting [3]), the “% Non” value is 0.75, the “% Ter” value was 0.25, the “Confidence (difference between class probabilities)” value was 0.5 and the Prediction result was “Non”.
